Test [1] addresses T1, PAT2 (Rattus norvegicus, UniProt Q8K415).
T1 construct: gene Slc36a2
Description: competition with L-[3H]proline uptake in PAT2-expressing Xenopus oocytes; TEVC. Type of test: cell-based.

In test [2] the target is T1, PAT2.
The target in test [3] is T1, PAT2. Description: inhibition of L-proline-induced current (TEVC) in PAT2-expressing oocytes; also uptake inhibition IC50 […]. The test is classed as cell-based.
Test [4] concerns the target T1, PAT2. Description: inhibition of L-[3H]proline uptake in PAT2-expressing Xenopus oocytes; TEVC; no trans-stimulation of efflux. Type of test: cell-based.
Test [5] concerns the target T1, PAT2. Description: competition with L-[3H]proline uptake in PAT2-expressing Xenopus oocytes. The test is classed as cell-based.
In test [6] the target is T1, PAT2. As to the kind of experiment: L-[3H]pipecolic acid uptake and TEVC competition with glycine in PAT2-expressing oocytes. Type of test: cell-based.

Each structure is given as a SMILES string.

T1 sequence (Q8K415 whole entry): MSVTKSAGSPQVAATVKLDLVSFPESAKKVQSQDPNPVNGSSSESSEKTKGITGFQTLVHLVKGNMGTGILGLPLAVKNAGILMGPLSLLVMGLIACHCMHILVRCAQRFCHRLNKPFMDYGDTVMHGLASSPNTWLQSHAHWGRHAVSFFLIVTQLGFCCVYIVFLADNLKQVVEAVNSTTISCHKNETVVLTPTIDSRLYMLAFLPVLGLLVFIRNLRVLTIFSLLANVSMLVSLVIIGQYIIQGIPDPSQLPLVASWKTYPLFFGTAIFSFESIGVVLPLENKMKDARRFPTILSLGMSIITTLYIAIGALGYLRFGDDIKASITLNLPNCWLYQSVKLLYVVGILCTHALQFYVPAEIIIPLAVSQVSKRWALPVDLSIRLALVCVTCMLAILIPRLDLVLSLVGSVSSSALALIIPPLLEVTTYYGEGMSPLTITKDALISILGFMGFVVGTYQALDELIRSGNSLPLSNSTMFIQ

As usually defined, the IC50 is the concentration that inhibits the measured activity by half. On to `O=C(O)[C@H]1NCC[C@@H]1O` [T3HP, trans-3-hydroxy-L-proline], for which, in test [1], the 50% inhibitory concentration (IC50) amounted to 13100 ± 4200 µM.

For `NCC(=O)O` [Gly, glycine], the “[3H]glycine uptake, TEVC current and trans-stimulation of L-[3H]proline efflux i” value in test [2] is 934 ± 22 pmol oocyte^− 1 (40 min)^− 1.

`CC(N)(Cc1c[nH]c2ccccc12)C(=O)O` (racemic) [Me-Trp, α-methyl-D,L-tryptophan]: in test [3], the IC50 was determined as 2700 ± 100 µM.

In the case of `N[C@@H](Cc1c[nH]c2ccc(O)cc12)C(=O)O` [OH-Trp, 5-hydroxy-L-tryptophan], in test [4], the IC50 came out at 1600 ± 400 µM.

`O=C(O)[C@@H]1C[C@@H](O)CN1` [T4HP, trans-4-hydroxy-L-proline]: in test [5], the IC50 was determined as 700 ± 200 µM.

In the case of `O=C(O)[C@@H]1CCCCN1` [L-Pip, L-pipecolic acid], in test [6], the “L-[3H]pipecolic acid uptake” value was 224 ± 19 pmol oocyte^− 1 (40 min)^− 1.

The record behind these values is PMC3000476, “Amino acid derivatives are substrates or non-transported inhibitors of the amino acid transporter PAT2 (slc36a2)” (Biochimica et Biophysica Acta, 2011).
